Results published in ChEMBL document CHEMBL1201862, “PubChem BioAssay data set” (2004).
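Cultured in 96-well plates, cells were exposed to test compound for 48 hours across five concentrations. Abbreviation: GI50, concentration required for 50% inhibition of growth.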 Activity calls are given as the source filed them. Cut-off read from the data, not from the text of the source: active = GI50 up to about 1.1 µM and inactive = higher.

Key:
Test in all cases: NCI anticancer screen, dose series, 48 h
SNB-75 = tested on: SNB-75
TK-10 = tested on: TK-10
M14 = tested on: M14
NCI-H522 = tested on: NCI-H522
IGROV-1 = tested on: IGROV-1
SK-MEL-28 = tested on: SK-MEL-28
RXF 393 = tested on: RXF 393
OVCAR-4 = tested on: OVCAR-4
EKVX = tested on: EKVX
SF-295 = tested on: SF-295
ACHN = tested on: ACHN
SF-268 = tested on: SF-268
HOP-62 = tested on: HOP-62
SK-MEL-2 = tested on: SK-MEL-2
SN12C = tested on: SN12C
A498 = tested on: A498
K562 = tested on: K562
UO-31 = tested on: UO-31
NCI/ADR-RES = tested on: NCI/ADR-RES

Compound	GI50 (SNB-75)	GI50 (TK-10)	GI50 (M14)	GI50 (NCI-H522)	GI50 (IGROV-1)	GI50 (SK-MEL-28)	GI50 (RXF 393)	GI50 (OVCAR-4)	GI50 (EKVX)	GI50 (SF-295)	GI50 (ACHN)	GI50 (SF-268)	GI50 (HOP-62)	GI50 (SK-MEL-2)	GI50 (SN12C)	GI50 (A498)	GI50 (K562)	GI50 (UO-31)	GI50 (NCI/ADR-RES)
Cc1cccc(C)c1NC(=O)CCc1nnc2s/c(=C\c3ccc(Cl)cc3)c(=O)n12	73.8 µM (inactive)	42.3 µM (inactive)	> 100 µM (inactive)	> 100 µM (inactive)	72.1 µM (inactive)	> 100 µM (inactive)	36.8 µM (inactive)	> 100 µM (inactive)	> 100 µM (inactive)	70.6 µM (inactive)	> 100 µM (inactive)	> 100 µM (inactive)	22 µM (inactive)	60.5 µM (inactive)	> 100 µM (inactive)	> 100 µM (inactive)	> 100 µM (inactive)	> 100 µM (inactive)	–
CCCC[C@@H]1CCN2C[C@@H](O)[C@@H](O)[C@H]2[C@@H]1O	> 100 µM (inactive)	> 100 µM (inactive)	> 100 µM (inactive)	> 100 µM (inactive)	> 100 µM (inactive)	> 100 µM (inactive)	–	> 100 µM (inactive)	> 100 µM (inactive)	> 100 µM (inactive)	> 100 µM (inactive)	> 100 µM (inactive)	–	> 100 µM (inactive)	–	> 100 µM (inactive)	> 100 µM (inactive)	> 100 µM (inactive)	> 100 µM (inactive)
COc1cc(/C=C/C(=O)C2(C(=O)/C=C/c3cc(OC)c(OC)c(OC)c3)CCCCC2)cc(OC)c1OC	56.4 µM (inactive)	34.3 µM (inactive)	29.9 µM (inactive)	30.1 µM (inactive)	27.4 µM (inactive)	46.3 µM (inactive)	–	46.6 µM (inactive)	27.5 µM (inactive)	34.8 µM (inactive)	62.1 µM (inactive)	40.5 µM (inactive)	55.6 µM (inactive)	> 100 µM (inactive)	35.2 µM (inactive)	> 100 µM (inactive)	51.3 µM (inactive)	60.7 µM (inactive)	32.1 µM (inactive)
Cc1c(C2Cc3ccccc3N2)c2ccccc2n1C (stereo not given)	> 100 µM (inactive)	> 100 µM (inactive)	> 100 µM (inactive)	> 100 µM (inactive)	> 100 µM (inactive)	–	> 100 µM (inactive)	> 100 µM (inactive)	> 100 µM (inactive)	> 100 µM (inactive)	> 100 µM (inactive)	> 100 µM (inactive)	> 100 µM (inactive)	> 100 µM (inactive)	> 100 µM (inactive)	> 100 µM (inactive)	> 100 µM (inactive)	> 100 µM (inactive)	–
CCOC(=O)Cc1csc(Nc2ccccc2[N+](=O)[O-])n1	> 100 µM (inactive)	> 100 µM (inactive)	> 100 µM (inactive)	> 100 µM (inactive)	> 100 µM (inactive)	> 100 µM (inactive)	> 100 µM (inactive)	> 100 µM (inactive)	> 100 µM (inactive)	> 100 µM (inactive)	> 100 µM (inactive)	> 100 µM (inactive)	> 100 µM (inactive)	> 100 µM (inactive)	> 100 µM (inactive)	> 100 µM (inactive)	> 100 µM (inactive)	> 100 µM (inactive)	–
COC(=O)C1C(C(=O)OC)C2(OC)c3ccccc3-c3ccccc3C12 (stereo not given)	38.4 µM (inactive)	31.8 µM (inactive)	34.2 µM (inactive)	20.3 µM (inactive)	35 µM (inactive)	90.2 µM (inactive)	40.9 µM (inactive)	48.2 µM (inactive)	28.7 µM (inactive)	38.2 µM (inactive)	37.9 µM (inactive)	45.1 µM (inactive)	71.6 µM (inactive)	8.51 µM (inactive)	32 µM (inactive)	44 µM (inactive)	19.8 µM (inactive)	31 µM (inactive)	–
O=C1NC2OC(CO)C(O)C(O1)C2O (stereo not given)	> 100 µM (inactive)	> 100 µM (inactive)	> 100 µM (inactive)	> 100 µM (inactive)	> 100 µM (inactive)	> 100 µM (inactive)	> 100 µM (inactive)	> 100 µM (inactive)	> 100 µM (inactive)	> 100 µM (inactive)	> 100 µM (inactive)	> 100 µM (inactive)	> 100 µM (inactive)	> 100 µM (inactive)	> 100 µM (inactive)	> 100 µM (inactive)	> 100 µM (inactive)	> 100 µM (inactive)	–
NC(N)NCCCc1cn2c(n1)C1CCCN1C(=O)C2Cc1ccccc1 (stereo not given)	61 µM (inactive)	> 100 µM (inactive)	> 100 µM (inactive)	> 100 µM (inactive)	> 100 µM (inactive)	> 100 µM (inactive)	> 100 µM (inactive)	> 100 µM (inactive)	> 100 µM (inactive)	> 100 µM (inactive)	> 100 µM (inactive)	> 100 µM (inactive)	> 100 µM (inactive)	> 100 µM (inactive)	> 100 µM (inactive)	> 100 µM (inactive)	> 100 µM (inactive)	> 100 µM (inactive)	–
Cc1ccccc1/N=N/c1ccc(/N=N/c2c(O)ccc3cc(S(=O)(=O)O)cc(S(=O)(=O)O)c23)c(C)c1	> 100 µM (inactive)	> 100 µM (inactive)	> 100 µM (inactive)	> 100 µM (inactive)	> 100 µM (inactive)	> 100 µM (inactive)	> 100 µM (inactive)	> 100 µM (inactive)	> 100 µM (inactive)	> 100 µM (inactive)	> 100 µM (inactive)	> 100 µM (inactive)	> 100 µM (inactive)	> 100 µM (inactive)	–	–	> 100 µM (inactive)	> 100 µM (inactive)	> 100 µM (inactive)
O=C1CCC(=O)N2CCCCN12	> 100 µM (inactive)	> 100 µM (inactive)	> 100 µM (inactive)	> 100 µM (inactive)	> 100 µM (inactive)	> 100 µM (inactive)	> 100 µM (inactive)	> 100 µM (inactive)	> 100 µM (inactive)	> 100 µM (inactive)	> 100 µM (inactive)	> 100 µM (inactive)	> 100 µM (inactive)	> 100 µM (inactive)	> 100 µM (inactive)	> 100 µM (inactive)	> 100 µM (inactive)	> 100 µM (inactive)	–
CCOC(=O)c1c(/C=N\Nc2ccccc2)nc2ccccc2c1-c1ccccc1	46.5 µM (inactive)	> 100 µM (inactive)	36.7 µM (inactive)	24.9 µM (inactive)	67.1 µM (inactive)	70.8 µM (inactive)	65.8 µM (inactive)	29.9 µM (inactive)	61.9 µM (inactive)	61.5 µM (inactive)	32.7 µM (inactive)	56.5 µM (inactive)	39 µM (inactive)	40.8 µM (inactive)	38.1 µM (inactive)	60.4 µM (inactive)	29.5 µM (inactive)	34.4 µM (inactive)	–
CN(CCCN1C(=O)c2cccc3cc([N+](=O)[O-])cc(c23)C1=O)CCN(C)CCCN1C(=O)c2cccc3cc([N+](=O)[O-])cc(c23)C1=O	20.4 µM (inactive)	> 39.3 µM (inactive)	> 39.3 µM (inactive)	> 39.3 µM (inactive)	16 µM (inactive)	25.5 µM (inactive)	33 µM (inactive)	27.4 µM (inactive)	> 39.3 µM (inactive)	22.3 µM (inactive)	17.9 µM (inactive)	29 µM (inactive)	31.8 µM (inactive)	13.3 µM (inactive)	> 39.3 µM (inactive)	> 39.3 µM (inactive)	4.94 µM (inactive)	–	–
CCCc1n[nH]c(CCC(=O)N(Cc2ccccc2)Cc2ccccc2)c1CC	> 100 µM (inactive)	> 100 µM (inactive)	> 100 µM (inactive)	> 100 µM (inactive)	> 100 µM (inactive)	> 100 µM (inactive)	> 100 µM (inactive)	> 100 µM (inactive)	> 100 µM (inactive)	> 100 µM (inactive)	> 100 µM (inactive)	> 100 µM (inactive)	> 100 µM (inactive)	> 100 µM (inactive)	> 100 µM (inactive)	> 100 µM (inactive)	> 100 µM (inactive)	> 100 µM (inactive)	–
Cc1ccc2c(c1)SC(c1cc3c(cc1Br)OCO3)S2 (stereo not given)	0.516 µM (active)	> 31.6 µM (inactive)	> 31.6 µM (inactive)	24.7 µM (inactive)	> 31.6 µM (inactive)	> 31.6 µM (inactive)	12.3 µM (inactive)	> 31.6 µM (inactive)	> 31.6 µM (inactive)	> 31.6 µM (inactive)	> 31.6 µM (inactive)	> 31.6 µM (inactive)	> 31.6 µM (inactive)	> 31.6 µM (inactive)	> 31.6 µM (inactive)	> 31.6 µM (inactive)	26.9 µM (inactive)	19.7 µM (inactive)	–
CCC1C(C(=O)Nc2ccccc2C)=C(C)NC(C)=C1c1ccccc1C (stereo not given)	> 100 µM (inactive)	> 100 µM (inactive)	> 100 µM (inactive)	> 100 µM (inactive)	> 100 µM (inactive)	> 100 µM (inactive)	> 100 µM (inactive)	> 100 µM (inactive)	> 100 µM (inactive)	> 100 µM (inactive)	> 100 µM (inactive)	> 40.6 µM (inactive)	> 100 µM (inactive)	> 100 µM (inactive)	> 100 µM (inactive)	> 100 µM (inactive)	80 µM (inactive)	> 100 µM (inactive)	–
